In US10023560B2, “Crystalline salt form of (S)-(2-(6 chloro-7-methyl-1H-benzo[d]imidazol-2-yl)-2-methylpyrrolidin-1-yl)(5-methoxy-2-(2H-1,2,3-triazol-2-yl)phenyl)methanone as orexin receptor antagonist” (priority 2013, dated 2018):

Columns and labels:
Wistar rats = assay: Sedative effects: EEG, EMG and behavioural indices of alertness by radiotelemetry; format: in vivo; details: 30 mg/kg po, effects analyzed over 6 hours
Procedure: Sedative Effects: EEG, EMG and Behavioural Indices of Alertness Recorded by Radiotelemetry In Vivo in Wistar Rats.
Electroencephalography (EEG) and Electromyography (EMG) signals were measured by telemetry using TL11M2-F20-EET miniature radiotelemetric implants (Data Science Int.) with two pairs of differential leads.
Surgical implantation was performed under general anesthesia with Ketamin/Xylazin, for cranial placement of one differential pair of EEG electrodes and one pair of EMG leads inserted in either side of the muscles of the neck. After surgery, rats recovered in a thermoregulated chamber and received analgesic treatment with subcutaneous buprenorphine twice a day for 2 d. They were then housed individually and allowed to recover for a minimum of 2 weeks. Thereafter, rats—in their home cage—were placed in a ventilated sound-attenuating box, on a 12-h light/12-h dark cycle, for acclimatization before continuous EEG/EMG recordings started. The telemetric technology that we used in this study allows accurate and stress-free acquisition of biosignals in rats placed in their familiar home cage environment, with no recording leads restricting their movements. Variables analyzed included four different stages of vigilance and sleep, spontaneous activity in the home cage and body temperature. Sleep and wake stages were evaluated using a rodent scoring software (Somnologica Science) directly processing electrical biosignals on 10 s contiguous epochs. The scoring is based on frequency estimation for EEG and amplitude discrimination for EMG and locomotor activity. Using these measurements, the software determines the probability that all components within each epoch best represent active waking (AW), quiet waking (QW), non-REM-sleep (NREM) or REM-sleep (REM). The percentage of total time spent in AW, QW, NREM- and REM-sleep was calculated per 12 h light or dark period. The latency to the onset of the first significant NREM- and REM-sleep episodes and the frequency and duration of those episodes were also calculated. […] All variables were subsequently recorded for 12 h following administration of the orexin receptor antagonist.

[1] = Gravimetric vapour sorption (GVS) analysis; format: physicochemical
Procedure: Gravimetric Vapour Sorption (GVS) Analysis
The sample was allowed to equilibrate at 40% RH before starting a pre-defined humidity program (40-0-95-0-95-40% RH, steps of 5% ΔRH and with a maximal equilibration time of 24 hours per step were applied. About 20 to 30 mg of each sample was used. The hygroscopic classification is done according to the European Pharmacopeia Technical Guide (1999, page 86), e.g., slightly hygroscopic: increase in mass is less than 2% and equal to or greater than 0.2% mass/mass; hygroscopic: increase in mass is less than 15% and equal to or greater than 2% mass/mass. The mass change between 40% relative humidity and 80% relative humidity in the first adsorption scan is considered.

fasted hungry rats = fasted hungry rats exposed to food odors; cited from earlier work
rats [2] = details: cited from earlier work
rat [3] = details: animal model of conditioned fear; cited from earlier work
rat [4] = details: rat model; cited from earlier work
[5] = system: amyloid precursor protein transgenic mice; details: after acute sleep restriction; cited from earlier work
mouse = mouse model of depression, administered chronically; cited from earlier work
humans = details: indication primary insomnia; cited from earlier work
rats [6] = details: rats treated with the compound; cited from earlier work
rat [7] = details: cited from earlier work
rodents [8] = details: induced by repeated amphetamine administration in rodents; cited from earlier work
rodents [9] = details: cited from earlier work

**Q.** With `COc1ccc(-n2nccn2)c(C(=O)N2CCC[C@@]2(C)c2nc3c(C)c(Cl)ccc3[nH]2)c1` [COMPOUND, (S)-(2-(6-chloro-7-methyl-1H-benzo[d]imidazol-2-yl)-2-methylpyrrolidin-1-yl)(5-methoxy-2-(2H-1,2,3-triazol-2-yl)phenyl)methanone] as the molecule, how does the “effect on NREM sleep compared to vehicle controls” value (Wistar rats) read?
**A.** The value was “+27%”.

**Q.** What about the “effect on REM sleep compared to vehicle controls” value (Wistar rats) of the same molecule?
**A.** The value was “+53%”.

**Q.** What about the “effect on active wake compared to vehicle controls” value (Wistar rats) of the same molecule?
**A.** The value was −24%.

**Q.** And the “effect on home cage activity compared to vehicle controls” value (Wistar rats)?
**A.** The value was −31%.

**Q.** And the “Hygroscopicity: sorption of moisture” value ([1]; humidity program 40-0-95-0-95-40% RH, 25° C.)?
**A.** Its value is at most 2.7 % moisture mass/mass.

**Q.** Which Hygroscopicity classification ([1]; 25° C., European Pharmacopeia Technical Guide classification) does the source give for `COc1ccc(-n2nccn2)c(C(=O)N2CCC[C@@]2(C)c2nc3ccc(Cl)c(C)c3[nH]2)c1.Cl` [COMPOUND hydrochloride, (S)-(2-(6-chloro-7-methyl-1H-benzo[d]imidazol-2-yl)-2-methylpyrrolidin-1-yl)(5-methoxy-2-(2H-1,2,3-triazol-2-yl)phenyl)methanone hydrochloride] here?
**A.** The Hygroscopicity classification was “Non hygroscopic (mass change smaller then”.

**Q.** And the “Hygroscopicity: mass change” value ([1]; between 40% and 80% relative humidity, first adsorption scan, 25° C.)?
**A.** The value was under 0.1%.

**Q.** And the “Sorption behavior between cycles” value ([1]; first to second cycle)?
**A.** Its value is “Reproducible, cycle independent”.

**Q.** Which “natural activation induced by orexin A” value (fasted hungry rats) does the source give for `CNC(=O)[C@@H](c1ccccc1)N1CCc2cc(OC)c(OC)cc2[C@@H]1CCc1ccc(C(F)(F)F)cc1` [(2R)-2-{(1S)-6,7-dimethoxy-1-[2-(4-trifluoromethyl-phenyl)-ethyl]-3,4-dihydro-1H-isoquinolin-2-yl}-N-methyl-2-phenyl-acetamide] here?
**A.** The value was “attenuate”.

**Q.** And the “cardiovascular responses to conditioned fear and novelty exposure” value (rats [2])?
**A.** Its value is “attenuated”.

**Q.** And the “activity in rat fear-potentiated startle paradigm” value (rat [3])?
**A.** Its value is “active”.

**Q.** And the “activity in nicotine self-administration” value (rat [4])?
**A.** Its value is “displayed pharmacological activity”.

**Q.** And the “brain levels of amyloid-beta (Aβ) and Aβ plaque deposition” value [5]?
**A.** Its value is “decreased”.

**Q.** And the antidepressant-like activity (mouse)?
**A.** The antidepressant-like activity was “induce antidepressant-like activity”.

**Q.** What about the clinical efficacy (humans) of the same molecule?
**A.** The clinical efficacy was “showed clinical efficacy”.

**Q.** What about the “declarative and non-declarative learning and memory” value (rats [6]) of the same molecule?
**A.** Its value is “intact”.

**Q.** And the “alertness (active wake and locomotion)” value (rat [7])?
**A.** Its value is “decrease alertness”.

**Q.** And the “time spent in REM and NREM sleep” value (rat [7])?
**A.** The value was “dose-dependently increase”.

**Q.** What does the source list for `Cn1c(SCC(=O)N2CCC[C@H]2C(=O)Nc2ccccc2-c2ccccc2)nc2ccccc21` [N-biphenyl-2-yl-1-{[(1-methyl-1H-benzimidazol-2-yl)sulfanyl]acetyl}-L-prolinamide]?
**A.** behavioral (locomotor sensitization) and molecular (transcriptional responses) changes (rodents [8]): reduced; nicotine-reinstatement for a conditioned reinforcer (rodents [9]): inhibited
